How the values were obtained:
human PINK1 [1] = assay: Parkin Ser65 phosphorylation in Flp-In T-Rex HEK293 cells expressing PINK1-FLAG after CCCP stimulation; format: cell-based
Procedure: (§1) Flp-In T-Rex stable cell lines were cultured using DMEM (Dulbecco's modified Eagle's medium) supplemented with 10% FBS (Fetal Bovine Serum), 2 mM L-Glutamine, 1× Pen/Strep, 15 μg/ml of Blasticidin and 100 μg/ml of Hygromycin. Cell transfections of HA-parkin or untagged parkin were performed using the polyethyleneimine (PEI) method (Reed et al, 2006). Cultures were induced to express protein by addition of 0.1 μg/ml of Doxycycline in the medium for 24 hours. To uncouple mitochondria, cells were treated with 10 μM CCCP (Sigma) dissolved in DMSO for the indicated times. An equivalent volume of DMSO was used as a control.
Cells were lysed and fractionated by the indicated buffer and methods: Whole cell lysis using buffer: 50 mM Tris/HCl (pH 7.4), 1 mM EGTA, 1 mM EDTA, 1%(w/v) 1 mM sodium orthovanadate, 10 mM sodium β-glycerophosphate, 50 mM NaF, 5 mM sodium pyrophosphate, 0.27M sucrose, 1 mM benzamidine and 2mMPMSF and 1%(v/v) Triton X-100. Lysates were clarified by centrifugation at 13,000 rpm for 10 min at 4° C. and the supernatant was collected. […] Protein concentration was determined using the Bradford method (Thermo Scientific) with BSA as the standard. […]

human PINK1 [2] = assay: Immunoprecipitation kinase assay of mitochondrial PINK1-FLAG from CCCP-treated HEK293 cells with GST-parkin Ubl (1-108) substrate; format: cell-based
Procedure: (§2) In assays utilising E. coli expressed wild-type or kinase dead (D359A) MBP-TcPINK1, reactions were set up in a volume of 40 μl, with substrates at 1 μg and kinase at 0.5 μg in 50mMTris-HCl (pH 7.5), 0.1 mM EGTA, 10 mM MgCl2, 2 mM dithiothreitol (DTT) and 0.1 mM [γ-^32P] ATP (approximately 500 cpm/pmol). Assays were incubated at 30° C. with shaking at 1200 rpm and terminated after the indicated time by addition of SDS sample buffer. In mammalian HEK293 immunoprecipitation kinase assays, C-terminal-FLAG tagged wild-type or kinase dead (D384A) PINK1 was immunoprecipitated from 5 mg of mitochondrial enriched extracts using anti-FLAG agarose beads and activity measured in a reaction volume of 40 μl consisting of 50 mM Tris-HCl (pH 7.5), 0.1 mM EGTA, 10 mM MgCl2, 2 mM DTT, 0.1 mM [γ-^32P] ATP (2000cpm/pmol) and 5 μg of indicated substrate. Assays were incubated at 30° C. with shaking at 1200 rpm and terminated after 30 min by addition of SDS sample buffer. For all assays, reaction mixtures were resolved by SDS-PAGE. Proteins were detected by Coomassie staining and gels were imaged using an Epson scanner and dried completely using a gel dryer (Bio-Rad). Incorporation of [γ-32P] ATP into substrates was analysed by autoradiography using Amersham Hyper-Film ECL.

human PINK1 [3] = assay: PINK1 stabilisation, band-shift and Thr257 autophosphorylation in mitochondrial/cytoplasmic extracts of CCCP-treated Flp-In T-Rex HEK293 cells; format: cell-based
Procedure: as §1
Cells were lysed and fractionated by the indicated buffer and methods: Whole cell lysis using buffer: 50 mM Tris/HCl (pH 7.4), 1 mM EGTA, 1 mM EDTA, 1%(w/v) 1 mM sodium orthovanadate, 10 mM sodium β-glycerophosphate, 50 mM NaF, 5 mM sodium pyrophosphate, 0.27M sucrose, 1 mM benzamidine and 2mMPMSF and 1%(v/v) Triton X-100. Lysates were clarified by centrifugation at 13,000 rpm for 10 min at 4° C. and the supernatant was collected. Mitochondrial fractionation: cells were lysed in buffer containing 250 mM sucrose, 20 mM HEPES, 3 mM EDTA, 1%(w/v) 1 mM sodium orthovanadate, 10 mM sodium β-glycerophosphate, 50 mM NaF, 5 mM sodium pyrophosphate, pH 7.5 and protease inhibitor cocktail (Roche) at 4° C. Cells were disrupted using a glass hand held homogeniser (20 passes) and the lysate was clarified by centrifuging for 10 min at 800 g at 4° C. The supernatant was further centrifuged at 16,600 g for 10 min. The resultant supernatant served as the cytosolic fraction. The pellet containing the mitochondrial fraction was resuspended in buffer containing 1% Triton X-100 and centrifuged at 13,000 rpm for 10 min. This supernatant contained solubilized mitochondrial proteins. All lysates were snap-frozen at −80° C. until use. Protein concentration was determined using the Bradford method (Thermo Scientific) with BSA as the standard.
Immunoprecipitation of recombinant PINK1-FLAG was undertaken by standard methods with anti-FLAG agarose beads (Sigma); of HA-parkin with anti-HA agarose beads (Sigma); and of untagged parkin with anti-parkin antibody (S966C) covalently conjugated to protein G-Sepharose. Immunoprecipitates, as well as cell lysates in SDS sample buffer were subjected to SDS-PAGE and transferred to PVDF membranes. For immunoblotting, membranes were incubated for 60 mins with 1% TBST containing either 5% (wt/vol) skimmed milk powder (for total antibodies) or 5% (wt/vol) BSA (for phospho-specific antibodies). The antibodies were then incubated in the same buffer overnight at 4° C. with the indicated primary antibodies. Sheep total and phospho-specific antibodies were used at a concentration of 1 μg/ml, whereas commercial antibodies were diluted 1000-fold. The incubation with phospho-specific sheep antibodies was performed with the addition of 10 μg/ml of the dephosphopeptide antigen used to raise the antibody. Blots were washed with 0.1% TBST and incubated with secondary HRP-conjugated antibodies in 5% skimmed milk for 60 mins. After repeated washes, the signal was detected with the enhanced chemiluminescence and the X-ray films were processed in a Konica Minolta Medical SRX-101 film processor.
10 mg of mitochondrial extract from Flp-In T-Rex HEK 293 cell lines stably PINK1-FLAG were subjected to immunoprecipitation with anti-FLAG-agarose and then eluted in LDS sample buffer. […]

PINK1 = target: T1, PINK1 (Homo sapiens, UniProt Q9BXM7); assay: Lambda phosphatase assay of immunoprecipitated PINK1 followed by in vitro kinase assay; format: biochemical; conditions: 50 mM EDTA with 1000U lambda phosphatase
T1 construct: expressed in transfected cells; host or cells: Flp-In T-Rex HEK293; anti-FLAG immunoprecipitate of mitochondrial enriched extract
T1 sequence (Q9BXM7 whole entry): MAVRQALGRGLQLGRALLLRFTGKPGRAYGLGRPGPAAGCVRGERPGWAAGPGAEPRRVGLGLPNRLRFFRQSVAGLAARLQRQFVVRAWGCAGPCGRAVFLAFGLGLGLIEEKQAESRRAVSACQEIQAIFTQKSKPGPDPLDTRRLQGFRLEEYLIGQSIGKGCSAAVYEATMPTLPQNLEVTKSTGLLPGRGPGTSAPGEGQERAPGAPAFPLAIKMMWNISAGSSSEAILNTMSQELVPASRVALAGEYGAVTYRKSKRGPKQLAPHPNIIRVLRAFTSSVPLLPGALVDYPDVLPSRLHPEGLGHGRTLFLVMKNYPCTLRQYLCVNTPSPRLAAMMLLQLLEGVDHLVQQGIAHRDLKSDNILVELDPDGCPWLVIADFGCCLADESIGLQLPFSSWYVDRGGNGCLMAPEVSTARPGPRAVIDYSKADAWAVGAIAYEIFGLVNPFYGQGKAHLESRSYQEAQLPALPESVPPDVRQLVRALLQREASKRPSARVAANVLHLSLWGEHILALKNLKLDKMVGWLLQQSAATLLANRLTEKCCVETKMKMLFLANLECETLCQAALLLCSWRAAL
Procedure: Wild-type PINK1 was incubated with or without 1000U of Lambda phosphatase (NEB) in a reaction volume of 40 μl consisting of 50 mM Tris pH 7.5, 1 mM MnCl2 and 2 mM DTT. In addition wild-type PINK1 was treated with 1000U of lambda phosphatase in the presence of 50 mM EDTA. Assays were incubated at 30° C. for 30 min with shaking at 1200 rpm. The beads were washed three times in 50 mM Tris pH7.5, 0.1 mM EGTA and then utilized in an in vitro kinase assay with GST-parkin UBL (1-108) as the substrate. Samples were further analyzed as described above.

TcPINK1 = target: T2, TcPINK1 (Tribolium castaneum, UniProt D6WMX4); assay: In vitro phosphorylation of substrates by TcPINK1; format: biochemical, insect; conditions: time course, GST-parkin, [γ-32P] ATP
T2 construct: full-length MBP-fusion of wild type TcPINK1 (1-570); made in house; host or cells: E. coli BL21 Codon+
T2 sequence (D6WMX4 1-570): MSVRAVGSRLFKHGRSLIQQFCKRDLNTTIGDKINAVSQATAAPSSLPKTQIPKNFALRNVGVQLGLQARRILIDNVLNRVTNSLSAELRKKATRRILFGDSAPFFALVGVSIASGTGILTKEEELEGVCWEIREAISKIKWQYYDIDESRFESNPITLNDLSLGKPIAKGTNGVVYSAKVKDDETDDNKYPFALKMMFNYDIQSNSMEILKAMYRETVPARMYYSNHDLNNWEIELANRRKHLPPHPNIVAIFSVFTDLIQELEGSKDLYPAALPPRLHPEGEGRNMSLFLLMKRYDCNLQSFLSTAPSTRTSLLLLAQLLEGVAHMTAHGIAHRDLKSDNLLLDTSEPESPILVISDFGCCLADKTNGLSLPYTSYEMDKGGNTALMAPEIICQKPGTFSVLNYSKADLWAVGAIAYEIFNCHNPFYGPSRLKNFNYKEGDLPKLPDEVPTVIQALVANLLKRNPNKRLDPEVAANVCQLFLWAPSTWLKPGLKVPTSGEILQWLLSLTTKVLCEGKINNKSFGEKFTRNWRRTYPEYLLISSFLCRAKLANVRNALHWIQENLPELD
Procedure: as §2

Molecule: N#CC(C#N)=NNc1cccc(Cl)c1 [CCCP, carbonyl cyanide m-chlorophenyl hydrazone]
- time at which parkin Ser65 phosphorylation occurs (human PINK1 [1]; 10 μM CCCP time course, phospho-Ser65 antibody): 5 min
- parkin phosphorylation at Ser65 (human PINK1 [1]; 10 μM CCCP, 3 hours, HEK293 cells expressing human wild-type PINK1, phospho-specific antibody): induced
- time of PINK1 activation (immunoprecipitated mitochondrial PINK1 phosphorylating parkin in vitro) (human PINK1 [2]; CCCP time course): around 40 mins
- time of maximal PINK1 activation (immunoprecipitated mitochondrial PINK1 phosphorylating parkin in vitro) (human PINK1 [2]; CCCP time course): 3 h
- activation of human PINK1 (ability to phosphorylate parkin Ubl domain at Ser65 in vitro) (human PINK1 [2]; PINK1 isolated from CCCP-treated vs non-treated cells): inducing the activation
- levels of full-length PINK1 associated with the mitochondria (human PINK1 [3]; 3 hour CCCP treatment): marked increase
- phosphorylation of PINK1 at Thr257 (human PINK1 [3]; CCCP 3 hours, wild type but not kinase-inactive PINK1, phosphospecific Thr257 antibody): markedly stimulated
- time to loss of the cleaved form of PINK1 in the cytosol (human PINK1 [3]; CCCP time course, cytoplasmic extracts): ≤ 5 min
- time to significant stabilisation of full-length PINK1 at the mitochondria (human PINK1 [3]; CCCP time course, mitochondrial extracts): ≤ 5 min
- time to maximal stabilisation of full-length PINK1 at the mitochondria (human PINK1 [3]; CCCP time course, mitochondrial extracts, sustained for up to 3 hours): ≤ 40 min

Molecule: O=C(O)CN(CCN(CC(=O)O)CC(=O)O)CC(=O)O [EDTA]
- effect on lambda phosphatase-induced dephosphorylation of Thr257 and loss of ability of PINK1 to phosphorylate parkin (PINK1): prevented

B1: parkin: human parkin protein expressed in E. coli, substrate of TcPINK1 (protein, UniProt O60260 1-465, looked up)
E3 ubiquitin-protein ligase …: MIVFVRFNSSHGFPVEVDSDTSIFQLKEVVAKRQGVPADQLRVIFAGKELRNDWTVQNCDLDQQSIVHIVQRPWRKGQEMNATGGDDPRNAAGGCEREPQSLTRVDLSSSVLPGDSVGLAVILHTDSRKDSPPAGSPAGRSIYNSFYVYCKGPCQRVQPGKLRVQCSTCRQATLTLTQGPSCWDDVLIPNRMSGECQSPHCPGTSAEFFFKCGAHPTSDKETSVALHLIATNSRNITCITCTDVRSPVLVFQCNSRHVICLDCFHLYCVTRLNDRQFVHDPQLGYSLPCVAGCPNSLIKELHHFRILGEEQYNRYQQYGAEECVLQMGGVLCPRPGCGAGLLPEPDQRKVTCEGGNGLGCGFAFCRECKEAYHEGECSAVFEASGTTTQAYRVDERAAEQARWEAASKETIKKTTKPCPRCHVPVEKNGGCMHMKCPQPQCRLEWCWNCGCEWNRVCMGDHWFDV
modifications: GST tag
notes: human parkin protein expressed in E. coli, substrate of TcPINK1
- maximal stoichiometry of phosphorylation by TcPINK1 (TcPINK1): −0.25 moles of 32P-phosphate per mol
